# ChEMBL document CHEMBL1201862, “PubChem BioAssay data set” (2004)
# The source made the active and inactive calls.
# Tests used:
# Type in all cases: functional
# [1] = test system: HEK293; assay: Fluorescence-based counterscreen for potentiators or agonists of NPY-Y2: cell-based high-throughput dose response assay to identify inhibitors of cyclic nucleotide gated ion channel (CNGC) activity. In this assay, the parental HEK293 cell line transfected with a cyclic-nucleotide gated ion channel (CNGC)-based cAMP sensor is used to measure inhibition of isoproterenol-induced CNGC activity by test compound.; settings: Homo sapiens;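 further: stimulus is 1 µM isoproterenol at EC100 plus PDE inhibitor Ro 20-1724 at 25 µM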
# [2] = molecular target: T1, Neuropeptide Y receptor type 2 (Homo sapiens, UniProt P49146); assay: Fluorescence-based cell-based high-throughput dose response assay for agonists of NPY-Y2. [Related pubchem assays: 1703 (Screening assay (CNGC inhibitors).), 1359 (Screening assay (NPY-Y2 potentiators or agonists).), 1304 (Screening assay (NPY-Y1 potentiators or agonists).), 1710 (Screening assay (NPY-Y2 agonists).), 1791 (Summary AID.)]
# T1 sequence (P49146 whole entry): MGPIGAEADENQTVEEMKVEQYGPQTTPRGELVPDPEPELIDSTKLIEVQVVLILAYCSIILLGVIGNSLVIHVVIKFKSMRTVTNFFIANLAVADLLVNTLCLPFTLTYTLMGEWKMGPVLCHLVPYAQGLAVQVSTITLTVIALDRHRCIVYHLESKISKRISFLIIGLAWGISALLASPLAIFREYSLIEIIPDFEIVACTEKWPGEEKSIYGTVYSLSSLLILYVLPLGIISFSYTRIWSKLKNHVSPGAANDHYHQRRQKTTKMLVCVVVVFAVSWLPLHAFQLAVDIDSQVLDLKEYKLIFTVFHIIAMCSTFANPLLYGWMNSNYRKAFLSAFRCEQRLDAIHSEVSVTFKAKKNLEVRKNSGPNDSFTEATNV
# [3] = molecular target: T2, Neuropeptide Y receptor type 1 (Homo sapiens, UniProt P25929); assay: Fluorescence-based counterscreen for agonists of NPY-Y2: cell-based high-throughput dose response assay for agonists of NPY-Y1.
# T2 sequence (P25929 whole entry): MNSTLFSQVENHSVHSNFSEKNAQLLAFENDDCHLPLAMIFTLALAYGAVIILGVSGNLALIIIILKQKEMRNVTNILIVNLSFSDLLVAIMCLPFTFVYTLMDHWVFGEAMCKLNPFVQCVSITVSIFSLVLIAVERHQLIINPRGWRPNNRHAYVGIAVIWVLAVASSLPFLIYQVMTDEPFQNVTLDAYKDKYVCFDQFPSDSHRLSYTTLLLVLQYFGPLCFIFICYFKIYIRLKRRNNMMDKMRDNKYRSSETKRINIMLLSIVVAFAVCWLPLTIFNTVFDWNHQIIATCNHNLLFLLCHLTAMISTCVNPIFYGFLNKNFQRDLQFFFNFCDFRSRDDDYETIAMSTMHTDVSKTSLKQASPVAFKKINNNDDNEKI
# [4] = inhibitors of Bluetongue virus cytopathic effect, confirmation, arbovirus, BSR cells (AID 1250);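 further: protection from viral cytopathic effect measured as cell viability by ATP luminescence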
# [5] = test system: HeLa; assay: Cytotoxicity counterscreen assay for transcriptional activators of heat shock protein 70 (Hsp70). [Related pubchem assays: 1203, 1252 ]; settings: Homo sapiens;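 further: cells exposed to compound for 16 hours before readout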
# [6] = growth suppression of PTEN-null colon cells, dose response, cell-based, HCT116 PTEN knockout (AID 1047);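 further: HCT116 colon tumor cells with PTEN knocked out; cells exposed to compound for 60 hours before readout; potency for loss of cell viability measured by luminescence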
# [7] = growth suppression of beta-catenin-knockout colon cells, dose response, cell-based, HCT116, human colon tumor (AID 1045);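 further: HCT116 colon tumor cells with beta catenin knocked out; cells exposed to compound for 60 hours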
# [8] = molecular target: T3, Replicative DNA helicase DnaB (Mycobacterium tuberculosis, UniProt P9WMR3); assay: DnaB intein splicing inhibitors, dose response, biochemical, cell-free fluorescence (AID 449749)
# T3 sequence (P9WMR3 whole entry): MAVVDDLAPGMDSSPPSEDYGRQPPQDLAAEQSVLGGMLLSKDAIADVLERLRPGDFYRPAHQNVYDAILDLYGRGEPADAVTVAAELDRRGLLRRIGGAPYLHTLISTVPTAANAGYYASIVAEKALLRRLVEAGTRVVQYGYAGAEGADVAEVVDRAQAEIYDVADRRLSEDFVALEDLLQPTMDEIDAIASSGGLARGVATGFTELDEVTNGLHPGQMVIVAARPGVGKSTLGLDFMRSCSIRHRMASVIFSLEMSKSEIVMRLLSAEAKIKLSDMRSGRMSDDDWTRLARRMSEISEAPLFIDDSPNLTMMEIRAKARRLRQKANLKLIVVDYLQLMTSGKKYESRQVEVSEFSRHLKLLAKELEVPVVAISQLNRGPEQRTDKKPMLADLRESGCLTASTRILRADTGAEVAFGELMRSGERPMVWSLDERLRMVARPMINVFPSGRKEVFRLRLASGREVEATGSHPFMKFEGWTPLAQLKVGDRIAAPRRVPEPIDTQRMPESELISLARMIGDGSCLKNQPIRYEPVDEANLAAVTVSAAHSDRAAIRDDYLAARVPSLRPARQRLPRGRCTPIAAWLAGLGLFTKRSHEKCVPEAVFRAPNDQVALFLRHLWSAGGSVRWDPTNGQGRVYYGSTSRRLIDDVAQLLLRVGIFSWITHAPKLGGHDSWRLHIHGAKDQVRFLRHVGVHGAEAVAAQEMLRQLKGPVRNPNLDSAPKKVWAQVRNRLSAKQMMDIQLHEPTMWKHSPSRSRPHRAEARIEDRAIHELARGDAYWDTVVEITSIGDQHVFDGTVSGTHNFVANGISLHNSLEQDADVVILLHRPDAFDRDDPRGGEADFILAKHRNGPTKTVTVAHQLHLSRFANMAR
# [9] = molecular target: T4, High affinity choline transporter 1 (Homo sapiens, UniProt Q9GZV3); assay: CHT inhibitors, dose response, cell-based, 5-point CRC, membrane potential dye (AID 504840)
# T4 sequence (Q9GZV3 whole entry): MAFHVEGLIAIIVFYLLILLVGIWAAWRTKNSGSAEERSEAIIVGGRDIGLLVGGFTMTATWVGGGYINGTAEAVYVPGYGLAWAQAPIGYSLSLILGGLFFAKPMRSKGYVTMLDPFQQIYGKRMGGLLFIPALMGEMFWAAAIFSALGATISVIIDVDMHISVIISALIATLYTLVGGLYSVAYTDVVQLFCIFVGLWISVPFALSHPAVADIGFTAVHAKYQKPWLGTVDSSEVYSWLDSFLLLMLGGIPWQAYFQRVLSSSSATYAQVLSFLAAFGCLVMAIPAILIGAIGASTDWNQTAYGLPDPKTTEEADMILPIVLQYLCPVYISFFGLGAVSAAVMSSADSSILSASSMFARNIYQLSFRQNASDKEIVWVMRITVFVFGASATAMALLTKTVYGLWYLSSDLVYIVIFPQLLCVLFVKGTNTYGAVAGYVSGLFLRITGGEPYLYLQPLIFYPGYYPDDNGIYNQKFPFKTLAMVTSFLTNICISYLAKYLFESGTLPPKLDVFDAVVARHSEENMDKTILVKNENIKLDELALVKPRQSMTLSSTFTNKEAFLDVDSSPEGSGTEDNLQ
# [10] = molecular target: T5, Protein RecA (Mycobacterium tuberculosis, UniProt P9WHJ3); assay: Fluorescence Cell-Free Homogeneous Dose Retest to Identify Inhibitors of RecA-Intein Splicing Activity. [Related pubchem assays (depositor defined):AID2097, AID2223, AID489010, AID492950]
# T5 sequence (P9WHJ3 whole entry): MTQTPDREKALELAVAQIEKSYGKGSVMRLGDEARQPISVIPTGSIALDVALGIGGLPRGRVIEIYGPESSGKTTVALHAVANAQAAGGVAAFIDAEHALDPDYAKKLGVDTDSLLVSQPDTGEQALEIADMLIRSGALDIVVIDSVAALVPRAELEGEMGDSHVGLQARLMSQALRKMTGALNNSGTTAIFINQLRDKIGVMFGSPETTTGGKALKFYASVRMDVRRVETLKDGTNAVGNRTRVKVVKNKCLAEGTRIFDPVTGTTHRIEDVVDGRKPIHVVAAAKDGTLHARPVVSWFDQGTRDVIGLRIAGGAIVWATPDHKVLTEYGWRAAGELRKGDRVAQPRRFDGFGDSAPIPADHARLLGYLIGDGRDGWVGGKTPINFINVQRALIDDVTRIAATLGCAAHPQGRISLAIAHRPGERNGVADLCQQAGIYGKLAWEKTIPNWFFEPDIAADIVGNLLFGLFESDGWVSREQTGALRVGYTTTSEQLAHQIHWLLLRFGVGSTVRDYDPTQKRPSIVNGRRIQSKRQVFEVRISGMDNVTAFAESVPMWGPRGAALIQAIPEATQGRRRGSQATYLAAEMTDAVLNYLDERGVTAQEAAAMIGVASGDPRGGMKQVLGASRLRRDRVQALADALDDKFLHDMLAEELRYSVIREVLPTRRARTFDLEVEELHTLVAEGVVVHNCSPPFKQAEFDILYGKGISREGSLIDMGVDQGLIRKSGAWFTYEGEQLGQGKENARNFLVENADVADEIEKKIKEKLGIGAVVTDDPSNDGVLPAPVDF
smiles,measurement,setting,value
Cc1ccc(Cl)cc1NC(=O)c1cc2ccccc2cc1O,EC50,[1],> 35.4 µM (not active)
same,EC50,[2],15.1 µM (not active)
same,EC50,[3],17.1 µM (not active)
CN(Cc1ccccc1NC(=O)c1ccc(S(=O)(=O)N(C)C)cc1)C1CCCCC1,IC50,[4],29.9 µM (active)
Cc1cc(C(=O)Cn2ncc(Cl)c(Cl)c2=O)c(C)n1CC(F)(F)F,CC50,[5],> 11 µM (not active)
same,EC50,[6],3.03 µM (active)
same,EC50,[7],2.06 µM (active)
same,AC50,[8],3.01 µM (active)
same,IC50,[9],20.9 µM (active)
same,EC50,[10],2.72 µM (active)
